Reference: publication PMC7347136 (PLoS ONE, 2020)

How the values were obtained:
Assay in all cases: Carna kinase panel screen
Format in all cases: biochemical
Details in all cases: read-out: % Inhibition ± SD
[1] = target: T1, BRSK1 (Homo sapiens, UniProt Q8TDC3)
T1 construct: purchased Carna Biosciences
How it was run: (§1)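 Inhibition was measured across ten compound concentrations at Km-approximating ATP. A four-parameter logistic curve fitted to the percentage-inhibition data yields the IC50.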

[2] = target: T2, EGFR[T790M] (Homo sapiens, UniProt P00533, T790M)
T2 construct: purchased Carna Biosciences
How it was run: as §1

[3] = target: T3, EGFR (Homo sapiens, UniProt P00533)
T3 construct: purchased Carna Biosciences
How it was run: (§2)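 Values are IC50s, derived by four-parameter logistic regression of percentage inhibition against concentration. Each curve used 10 concentrations and ATP close to Km.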

[4] = target: T4, FYN (Homo sapiens, UniProt P06241)
T4 construct: purchased Carna Biosciences
How it was run: as §1

[5] = target: T5, TXK (Homo sapiens, UniProt P42681)
T5 construct: purchased Carna Biosciences
How it was run: as §1

[6] = target: T6, AurC (Homo sapiens, UniProt Q9UQB9)
T6 construct: purchased Carna Biosciences
How it was run: (§3)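 IC50 from a 10-point concentration series run at ATP near Km; percent inhibition per concentration fitted to a four-parameter logistic curve.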

[7] = target: T7, SLK (Homo sapiens, UniProt Q9H2G2)
T7 construct: purchased Carna Biosciences
How it was run: as §1

[8] = target: T8, IKKa (Homo sapiens, UniProt O15111)
T8 construct: purchased Carna Biosciences
T8 sequence (O15111 whole entry): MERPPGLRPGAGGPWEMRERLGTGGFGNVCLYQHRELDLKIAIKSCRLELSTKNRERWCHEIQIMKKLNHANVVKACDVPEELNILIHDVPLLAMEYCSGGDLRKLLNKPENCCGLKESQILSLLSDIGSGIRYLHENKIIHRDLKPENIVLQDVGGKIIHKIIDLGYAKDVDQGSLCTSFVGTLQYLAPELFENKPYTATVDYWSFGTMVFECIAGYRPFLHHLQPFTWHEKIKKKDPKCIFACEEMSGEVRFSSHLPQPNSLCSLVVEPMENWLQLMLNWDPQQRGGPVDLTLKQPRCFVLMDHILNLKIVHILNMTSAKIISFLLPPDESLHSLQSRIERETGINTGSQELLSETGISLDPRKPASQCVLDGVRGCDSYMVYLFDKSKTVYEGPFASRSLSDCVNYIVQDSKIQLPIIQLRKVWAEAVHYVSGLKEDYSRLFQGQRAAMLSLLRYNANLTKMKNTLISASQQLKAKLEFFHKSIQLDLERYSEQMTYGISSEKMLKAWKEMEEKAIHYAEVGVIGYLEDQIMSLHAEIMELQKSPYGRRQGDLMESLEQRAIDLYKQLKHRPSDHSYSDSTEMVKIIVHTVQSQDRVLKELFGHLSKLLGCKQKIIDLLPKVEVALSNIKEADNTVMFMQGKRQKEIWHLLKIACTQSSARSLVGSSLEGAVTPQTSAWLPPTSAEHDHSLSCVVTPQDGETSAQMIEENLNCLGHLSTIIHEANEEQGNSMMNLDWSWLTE
How it was run: as §1

[9] = target: T9, HGK (Homo sapiens, UniProt O95819)
T9 construct: purchased Carna Biosciences
How it was run: as §1

[10] = target: T10, MET[Y1235D] (Homo sapiens, UniProt P08581, Y1235D)
T10 construct: purchased Carna Biosciences
How it was run: as §1

[11] = target: T11, CDC7 (Homo sapiens, UniProt O00311)
T11 construct: purchased Carna Biosciences
How it was run: as §1

[12] = target: T12, MLK3 (Homo sapiens, UniProt Q16584)
T12 construct: purchased Carna Biosciences
How it was run: as §1

[13] = target: T13, CaMK4 (Homo sapiens, UniProt Q16566)
T13 construct: purchased Carna Biosciences
How it was run: as §1

[14] = target: T14, p70S6K (Homo sapiens, UniProt P23443)
T14 construct: purchased Carna Biosciences
How it was run: as §1

[15] = target: T15, NuaK1 (Homo sapiens, UniProt O60285)
T15 construct: purchased Carna Biosciences
How it was run: as §1

[16] = target: T16, EphB2 (Homo sapiens, UniProt P29323)
T16 construct: purchased Carna Biosciences
How it was run: as §1

[17] = target: T17, LCK (Homo sapiens, UniProt P06239)
T17 construct: purchased Carna Biosciences
How it was run: as §1

[18] = target: T18, ZAP70 (Homo sapiens, UniProt P43403)
T18 construct: purchased Carna Biosciences
How it was run: as §1

[19] = target: T19, ROCK2 (Homo sapiens, UniProt O75116)
T19 construct: purchased Carna Biosciences
How it was run: as §1

[20] = target: T20, CDK6 (Homo sapiens, UniProt Q00534)
T20 construct: purchased Carna Biosciences
How it was run: as §3

[21] = target: T21, MELK (Homo sapiens, UniProt Q14680)
T21 construct: purchased Carna Biosciences
T21 sequence (Q14680 whole entry): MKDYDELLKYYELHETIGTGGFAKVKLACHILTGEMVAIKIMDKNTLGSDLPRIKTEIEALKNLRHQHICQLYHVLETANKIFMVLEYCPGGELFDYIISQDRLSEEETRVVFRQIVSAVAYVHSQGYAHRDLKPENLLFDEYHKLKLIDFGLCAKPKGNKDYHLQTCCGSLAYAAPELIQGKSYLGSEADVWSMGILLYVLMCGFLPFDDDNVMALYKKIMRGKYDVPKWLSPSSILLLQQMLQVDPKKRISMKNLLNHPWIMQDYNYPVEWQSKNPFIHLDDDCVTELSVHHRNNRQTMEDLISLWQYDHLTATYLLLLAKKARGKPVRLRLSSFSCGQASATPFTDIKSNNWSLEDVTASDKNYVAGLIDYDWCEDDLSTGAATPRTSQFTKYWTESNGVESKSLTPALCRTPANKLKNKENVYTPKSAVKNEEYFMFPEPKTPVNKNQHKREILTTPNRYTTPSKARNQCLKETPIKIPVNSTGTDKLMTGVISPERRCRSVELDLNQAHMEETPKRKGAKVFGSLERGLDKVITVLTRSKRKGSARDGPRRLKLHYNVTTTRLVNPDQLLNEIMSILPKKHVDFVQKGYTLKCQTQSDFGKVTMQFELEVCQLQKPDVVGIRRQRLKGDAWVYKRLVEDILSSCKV
How it was run: as §1

[22] = target: T22, COT (Homo sapiens, UniProt P41279)
T22 construct: purchased Carna Biosciences
How it was run: as §1

[23] = target: T23, MAP3K3 (Homo sapiens, UniProt Q99759)
T23 construct: purchased Carna Biosciences
How it was run: as §1

[24] = target: T24, AKT3 (Homo sapiens, UniProt Q9Y243)
T24 construct: purchased Carna Biosciences
How it was run: as §1

[25] = target: T25, AurA (Homo sapiens, UniProt O14965)
T25 construct: purchased Carna Biosciences
How it was run: as §1

[26] = target: T26, PIM1 (Homo sapiens, UniProt P11309)
T26 construct: purchased Carna Biosciences
How it was run: as §1

[27] = target: T27, p38a (Homo sapiens, UniProt Q16539)
T27 construct: purchased Carna Biosciences
How it was run: as §1

[28] = target: T28, CaMK2g (Homo sapiens, UniProt Q13555)
T28 construct: purchased Carna Biosciences
How it was run: as §2

[29] = target: T29, BRK (Homo sapiens, UniProt Q13882)
T29 construct: purchased Carna Biosciences
How it was run: as §1

[30] = target: T30, Erk5 (Homo sapiens, UniProt Q13164)
T30 construct: purchased Carna Biosciences
T30 sequence (Q13164 whole entry): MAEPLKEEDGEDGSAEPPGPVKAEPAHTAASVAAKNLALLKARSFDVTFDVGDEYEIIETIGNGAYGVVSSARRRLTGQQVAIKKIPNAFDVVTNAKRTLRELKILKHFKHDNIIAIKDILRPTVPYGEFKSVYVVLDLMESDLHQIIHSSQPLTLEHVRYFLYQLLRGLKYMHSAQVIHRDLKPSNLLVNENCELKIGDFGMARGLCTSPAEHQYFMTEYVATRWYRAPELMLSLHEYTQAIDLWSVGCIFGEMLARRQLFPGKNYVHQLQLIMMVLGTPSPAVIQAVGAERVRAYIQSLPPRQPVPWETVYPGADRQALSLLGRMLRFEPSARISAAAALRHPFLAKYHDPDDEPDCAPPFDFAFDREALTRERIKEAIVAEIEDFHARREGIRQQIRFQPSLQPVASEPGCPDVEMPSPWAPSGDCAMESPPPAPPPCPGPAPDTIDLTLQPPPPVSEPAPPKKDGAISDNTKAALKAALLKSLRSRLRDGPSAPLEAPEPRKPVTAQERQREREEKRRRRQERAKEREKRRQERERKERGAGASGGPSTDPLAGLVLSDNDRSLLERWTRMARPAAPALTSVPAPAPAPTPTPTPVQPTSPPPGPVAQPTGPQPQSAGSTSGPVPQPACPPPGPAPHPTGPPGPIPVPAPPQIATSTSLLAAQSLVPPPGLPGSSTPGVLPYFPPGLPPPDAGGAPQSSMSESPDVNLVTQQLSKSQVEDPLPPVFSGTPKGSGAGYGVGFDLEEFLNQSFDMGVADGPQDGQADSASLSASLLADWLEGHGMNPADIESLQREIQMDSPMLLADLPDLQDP
How it was run: as §1

[31] = target: T31, GSK3b (Homo sapiens, UniProt P49841)
T31 construct: purchased Carna Biosciences
T31 sequence (P49841 whole entry): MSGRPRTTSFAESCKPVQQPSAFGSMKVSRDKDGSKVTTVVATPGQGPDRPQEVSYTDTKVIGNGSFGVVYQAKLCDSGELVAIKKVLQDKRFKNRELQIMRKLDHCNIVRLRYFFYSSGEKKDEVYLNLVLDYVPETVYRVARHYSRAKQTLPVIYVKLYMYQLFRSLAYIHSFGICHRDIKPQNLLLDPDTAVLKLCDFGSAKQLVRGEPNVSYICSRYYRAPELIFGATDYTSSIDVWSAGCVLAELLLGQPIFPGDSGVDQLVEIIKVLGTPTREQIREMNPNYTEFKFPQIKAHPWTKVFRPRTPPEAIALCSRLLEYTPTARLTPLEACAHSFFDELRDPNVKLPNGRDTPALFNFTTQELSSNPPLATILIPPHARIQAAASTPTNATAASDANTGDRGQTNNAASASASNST
How it was run: as §1

[32] = target: T32, CDK4 (Homo sapiens, UniProt P11802)
T32 construct: purchased Carna Biosciences
How it was run: as §2

[33] = target: T33, LOK (Homo sapiens, UniProt O94804)
T33 construct: purchased Carna Biosciences
How it was run: as §1

[34] = target: T34, FGFR2 (Homo sapiens, UniProt P21802)
T34 construct: purchased Carna Biosciences
How it was run: as §1

[35] = target: T35, PGK (Homo sapiens, UniProt Q13976)
T35 construct: purchased Carna Biosciences
T35 sequence (Q13976 whole entry): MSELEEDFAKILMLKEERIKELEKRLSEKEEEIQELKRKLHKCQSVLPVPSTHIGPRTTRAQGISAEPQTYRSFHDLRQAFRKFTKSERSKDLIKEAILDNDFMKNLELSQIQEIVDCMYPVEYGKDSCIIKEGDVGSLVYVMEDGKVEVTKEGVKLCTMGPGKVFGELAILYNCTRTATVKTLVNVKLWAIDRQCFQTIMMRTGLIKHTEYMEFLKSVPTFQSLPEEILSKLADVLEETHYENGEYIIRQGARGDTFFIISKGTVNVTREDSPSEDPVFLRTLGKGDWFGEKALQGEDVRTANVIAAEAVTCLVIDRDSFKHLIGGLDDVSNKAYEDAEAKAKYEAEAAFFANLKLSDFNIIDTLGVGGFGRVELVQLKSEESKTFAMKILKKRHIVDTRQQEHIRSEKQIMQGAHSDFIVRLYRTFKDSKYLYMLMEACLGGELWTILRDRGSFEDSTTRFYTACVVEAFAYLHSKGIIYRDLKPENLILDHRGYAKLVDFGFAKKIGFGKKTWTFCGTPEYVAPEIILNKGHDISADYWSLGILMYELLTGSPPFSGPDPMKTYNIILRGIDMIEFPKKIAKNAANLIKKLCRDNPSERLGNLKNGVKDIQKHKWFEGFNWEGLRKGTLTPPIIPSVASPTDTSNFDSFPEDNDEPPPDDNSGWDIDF
How it was run: as §2

[36] = target: T36, PBK (Homo sapiens, UniProt Q96KB5)
T36 construct: purchased Carna Biosciences
How it was run: as §1

[37] = target: T37, MST2 (Homo sapiens, UniProt Q13188)
T37 construct: purchased Carna Biosciences
T37 sequence (Q13188 whole entry): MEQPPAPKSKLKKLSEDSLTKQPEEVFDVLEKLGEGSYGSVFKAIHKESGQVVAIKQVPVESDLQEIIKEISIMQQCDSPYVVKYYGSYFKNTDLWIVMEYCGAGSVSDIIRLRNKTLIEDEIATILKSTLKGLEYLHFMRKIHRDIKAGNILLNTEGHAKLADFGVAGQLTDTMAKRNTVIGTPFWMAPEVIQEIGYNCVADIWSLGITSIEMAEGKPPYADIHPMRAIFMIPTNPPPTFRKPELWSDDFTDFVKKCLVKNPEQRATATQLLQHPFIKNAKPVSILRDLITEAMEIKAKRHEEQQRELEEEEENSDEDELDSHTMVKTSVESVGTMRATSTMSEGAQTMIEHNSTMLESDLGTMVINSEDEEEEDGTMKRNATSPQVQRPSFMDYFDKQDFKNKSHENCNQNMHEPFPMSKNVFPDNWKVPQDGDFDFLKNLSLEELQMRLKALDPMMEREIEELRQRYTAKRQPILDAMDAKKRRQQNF
How it was run: as §1

[38] = target: T38, JAK3 (Homo sapiens, UniProt P52333)
T38 construct: purchased Carna Biosciences
How it was run: as §1

[39] = target: T39, CSK (Homo sapiens, UniProt P41240)
T39 construct: purchased Carna Biosciences
How it was run: as §1

[40] = target: T40, PDGFRa[T674I] (Homo sapiens, UniProt P16234, T674I)
T40 construct: purchased Carna Biosciences
How it was run: as §2

[41] = target: T41, SGK2 (Homo sapiens, UniProt Q9HBY8)
T41 construct: purchased Carna Biosciences
How it was run: as §1

[42] = target: T42, EphA3 (Homo sapiens, UniProt P29320)
T42 construct: purchased Carna Biosciences
T42 sequence (P29320 21-983): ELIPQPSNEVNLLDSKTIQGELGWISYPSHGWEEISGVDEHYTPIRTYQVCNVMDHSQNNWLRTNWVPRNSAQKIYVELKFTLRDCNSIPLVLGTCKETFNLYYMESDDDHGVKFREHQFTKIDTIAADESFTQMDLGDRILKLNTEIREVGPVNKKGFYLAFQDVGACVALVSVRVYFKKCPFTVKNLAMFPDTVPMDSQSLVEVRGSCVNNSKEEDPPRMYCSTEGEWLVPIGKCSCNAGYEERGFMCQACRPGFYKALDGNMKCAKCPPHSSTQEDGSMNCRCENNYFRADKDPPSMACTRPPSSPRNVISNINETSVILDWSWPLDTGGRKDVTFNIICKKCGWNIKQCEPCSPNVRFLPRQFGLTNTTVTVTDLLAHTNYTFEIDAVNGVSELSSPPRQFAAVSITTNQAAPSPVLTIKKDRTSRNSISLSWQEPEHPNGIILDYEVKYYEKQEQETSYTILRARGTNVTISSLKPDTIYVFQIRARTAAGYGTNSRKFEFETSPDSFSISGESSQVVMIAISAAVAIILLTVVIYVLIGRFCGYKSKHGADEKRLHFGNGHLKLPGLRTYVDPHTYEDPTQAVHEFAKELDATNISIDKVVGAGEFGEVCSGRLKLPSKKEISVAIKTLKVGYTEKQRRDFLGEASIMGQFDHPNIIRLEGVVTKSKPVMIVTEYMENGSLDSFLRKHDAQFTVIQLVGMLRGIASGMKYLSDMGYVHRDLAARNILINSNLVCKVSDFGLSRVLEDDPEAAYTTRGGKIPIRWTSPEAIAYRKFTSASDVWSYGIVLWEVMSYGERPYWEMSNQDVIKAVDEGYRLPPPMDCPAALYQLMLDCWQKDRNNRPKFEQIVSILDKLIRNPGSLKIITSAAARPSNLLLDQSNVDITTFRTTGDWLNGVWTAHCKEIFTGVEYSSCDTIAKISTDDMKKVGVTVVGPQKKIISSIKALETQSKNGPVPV
How it was run: as §1

[43] = target: T43, MAP2K4 (Homo sapiens, UniProt P45985)
T43 construct: purchased Carna Biosciences
How it was run: as §1

SMILES: CC[C@H](Nc1nc(NCc2cnc(C)cc2C)c2ncn(C(C)C)c2n1)[C@@H](C)O [Fadraciclib, 2-pentanol, 3-[[6-[[(4,6-dimethyl-3-pyridinyl)methyl]amino]-9-(1-methylethyl)-9Hpurin-2-yl]amino]-, (2R,3S)]
- inhibition at 1 µM [1]: -11.5 ± 0.1%
- inhibition at 1 µM [2]: -9.6 ± 0.1%
- inhibition at 1 µM [3]: -10.8 ± 0.4%
- inhibition at 1 µM [4]: 7.4 ± 0.3%
- inhibition at 1 µM [5]: 3.1 ± 0.1%
- inhibition at 1 µM [6]: 3 ± 0.2%
- inhibition at 1 µM [7]: 2.5 ± 0.1%
- inhibition at 1 µM [8]: 0%
- inhibition at 1 µM [9]: -23.8 ± 2.7%
- inhibition at 1 µM [10]: 2.4 ± 0.1%
- inhibition at 1 µM [11]: -5.7%
- inhibition at 1 µM [12]: -4.9 ± 0.4%
- inhibition at 1 µM [13]: -4.8 ± 0.1%
- inhibition at 1 µM [14]: 5.6 ± 0.2%
- inhibition at 1 µM [15]: -2.5%
- inhibition at 1 µM [16]: 5 ± 0.2%
- inhibition at 1 µM [17]: -7.3 ± 0.1%
- inhibition at 1 µM [18]: -11.6 ± 0.3%
- inhibition at 1 µM [19]: 4.2%
- inhibition at 1 µM [20]: 27 ± 0.9%
- inhibition at 1 µM [21]: 5 ± 0.1%
- inhibition at 1 µM [22]: -15.6 ± 0.4%
- inhibition at 1 µM [23]: -2.6 ± 0.1%
- inhibition at 1 µM [24]: 2.4 ± 0.3%
- inhibition at 1 µM [25]: -16.2 ± 0.4%
- inhibition at 1 µM [26]: 7.4 ± 0.1%
- inhibition at 1 µM [27]: -13.3 ± 0.3%
- inhibition at 1 µM [28]: 12.5 ± 0.4%
- inhibition at 1 µM [29]: 2.4 ± 0.1%
- inhibition at 1 µM [30]: 3.7 ± 0.1%
- inhibition at 1 µM [31]: 23.8 ± 1%
- inhibition at 1 µM [32]: 75.7 ± 5%
- inhibition at 1 µM [33]: -23.8 ± 0.3%
- inhibition at 1 µM [34]: -17.6 ± 2.2%
- inhibition at 1 µM [35]: -21.7 ± 0.2%
- inhibition at 1 µM [36]: -0.9%
- inhibition at 1 µM [37]: -1.5%
- inhibition at 1 µM [38]: -9.5%
- inhibition at 1 µM [39]: -18.7 ± 0.4%
- inhibition at 1 µM [40]: -11.4 ± 0.2%
- inhibition at 1 µM [41]: 0.9%
- inhibition at 1 µM [42]: 1.6 ± 0.1%
- inhibition at 1 µM [43]: -2.7 ± 0.1%
